The values below come from patent US9532569B2 (INSTITUT NATIONAL DE LA RECHERCHE AGRONOMIQUE, priority 2012, dated 2017).

The test system of the assay is pea rms1 mutants. The experiment in a line: Hydroponic culture test in pea. The format is in vivo, Pisum sativum L. To be noted: 1 μM in hydroponic culture solution, 8 days. The method, then:
For this example, ramosus (rms1) hyperbranched pea (Pisum sativum L.) mutants were used.
More particularly, rms1 (rms1-10) hyperbranched mutant plants were used. The nutritive solution (100%) was prepared by adding the following macronutrients to 1000 l of water: HNO3 (0.28 l), (NH4)2HPO4 (120 g), Ca(NO3)2 (40 g), Mg(NO3)2 (140 g), KNO3 (550 g), (NH4)2MoO4 (0.05 g), H3BO3 (15 g), MnSO4.H2O (2 g), ZnSO4.7H2O (1 g), CuSO4.5H2O (0.25 g), Sequestrene® (10 g) (Fe-EDTA solution). The pea seeds were germinated in moist sand for 6 days, then placed in holes of a lid (35 holes/lid, 20 mm in diameter) of an opaque PVC pot containing the hydroponic culture solution (47 l, pH 5.8).
In a first experiment, acetone or the compound to be tested (dissolved in acetone) was added to the hydroponic culture solution so as to obtain a final concentration of 0 or 1 μM of compound to be tested and 0.01% of acetone.
The hydroponic culture solution was continually aerated by means of an aquarium pump and replaced each week. 8 days after the start of the treatment, the lengths of bud/branch (nodes 1 to 6) were measured with an electronic sliding caliper.
This experiment was carried out for the compounds according to the invention (IIa) and (IIIb), and also the GR24 compound as comparative compound. A negative control (<<CTL 0>>), corresponding to a treatment with the solvent alone, was also carried out.
The results (mean data on 20 plants), in terms of, on the one hand, length of the branches at nodes 3 to 5 and, on the other hand, plant height, are shown respectively in FIGS. 11 and 12.
The same experiment was carried out for the compound in accordance with the invention (II″g) and the comparative compound GR24. Dimethyl sulfoxide (DMSO) or the compound to be tested, dissolved in DMSO, was added to the hydroponic culture solution so as to obtain a final concentration of 0 or 3 μM of compound to be tested and 0.01% of DMSO.
The results (mean data on 10 to 12 plants), in terms, on the one hand, of length of the branches at nodes 3 to 4 and, on the other hand, of plant height, are shown respectively in FIGS. 13 and 14.

Consider `CC1=C(C)C(Sc2ccc(Cl)cc2)OC1=O` (centres unmarked) [Compound (IIa), 5-((4-chlorophenyl)thio)-3,4-dimethylfuran-2(5H)-one], for which, for the setting “FIG. 11”, the “length of the branches at nodes 3 to 5” value was “activity of the compounds in accordance with the invention (IIa) and (IIIb) on all the branches of nodes 3 to 5”. Also, where the note is “FIG. 12”, the plant height result was “significant effect on plant height is also demonstrated, comparable between the comparative compound GR24 and the compound in accordance with the invention (IIa)”.
